Patent US5578639A, “PLA2 inhibitors and their use for inhibition of intestinal cholesterol absorption” (Warner-Lambert Company, priority 1995, dated 1996)
Like-named read-outs stand apart in the source and are kept apart here.

Tests used:
[1] = target: T1, porcine pancreatic PLA2 (Sus scrofa, UniProt P00592); assay: Fluorescence assay of porcine pancreatic PLA2 inhibition in vitro; assay type: biochemical
T1 construct: purchased Sigma Chemical Company (St. Louis, Mo.); host or cells: porcine pancreas
T1 sequence (P00592 23-146): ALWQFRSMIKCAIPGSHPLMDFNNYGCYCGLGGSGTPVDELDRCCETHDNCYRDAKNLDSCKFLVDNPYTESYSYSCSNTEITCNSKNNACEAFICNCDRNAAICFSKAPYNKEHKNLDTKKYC
Source text: The IC50 values for inhibition of porcine pancreatic PLA2, in vitro, are included for comparison with the in vivo activities.
A sensitive fluorescence method was used to measure the activity of pancreatic phospholipase A2 (PLA2) in vitro. PLA2 hydrolyzes the ester bond linking fatty acids to the sn-2 position in glycerophospholipids. Several types of PLA2 exist, including those isolated from venoms, synovial fluid, platelets, immunoactive cell types and the pancreas. The pancreatic PLA2 was the subject of this experiment because of its fundamental role in promoting lipid absorption in the intestine.
PLA2 activity was detected by the loss of pyrene excimer fluorescence that occurs when (1-pyrenyl)decanoic acid is hydrolysed from the sn-2 position of 1,2-bis-(1-pyrenedecanoyl)sn-glycero-3-phosphocholine ((P10)2 PC) by the action of PLA2. The use of similar pyrene-labeled PC substrates to detect PLA2 activity has been described previously (Radvanyi F., Jordan L., Russo-Marie F., Bon C., "A sensitive and continuous fluorometric assay for phospholipase A2 using pyrene-labeled phospholipids in the presence of serum albumin." Anal. Biochem., 177:103-109 (1989)). The full photophysical basis for the assay is described elsewhere (Birks J. B., "Photophysics of Aromatic Molecules," Wiley Interscience, New York, pp 301-371 (1970)).
In brief, pyrene excimers are formed by the complexation of one pyrene moiety in the ground-state with one pyrene moiety in the excited state to form an excited-state dimer (excimer) which fluoresces at longer wavelengths (475 nm emission maximum) than the wavelength range in which excited-state pyrene monomers fluoresce (370-400 nm). Excimer formation is dependent on the concentration of pyrene moieties. (P10)2 PC emits excimer fluorescence almost exclusively due to the fixed juxtaposition of the pyrene chromophores. The substrate concentration is sufficiently dilute so that excimer formation between the products of PLA2 action, namely lysoPY10PC and the (1-pyrenyl)decanoic acid, is insignificant.
In general, this assay scheme should have been applicable to the study of any type of PLA2. However, since pancreatic PLA2 is unique from the other PLA2 's in that it operates almost exclusively against micellized PC, the PC substrate in this assay was micellized with 1 mM deoxycholic acid. The PC component of the micelles consisted of 5 μM (P10)2 PC substrate diluted with a 99-fold excess (495 μM) of 1-oleyl-2-palmityl phosphatidylcholine (OPPC). The OPPC was inert to PLA2 hydrolysis because it contained ether-linked fatty alkyl chains in place of the ester-linked fatty acyl chains of normal PC. OPPC was included to 1) dilute the micellar (P10)2 PC concentration thereby minimizing intermolecular excimer formation, and 2) preserve the integrity of the micelles against the action of PLA2 since nonspecific micelle disruption could lead to nonlinear kinetics and fluorescence changes independent of lipolysis.
Phospholipase A2 (porcine pancreas), bovine serum albumin (BSA) (fraction V, essentially fatty acid-free) and sodium deoxycholate were obtained from Sigma Chemical Company, (St. Louis, Mo.). 1-Oleyl-2-palmityl-DL-phosphatidylcholine (OPPC) was ordered from Serdary Research Laboratories, Inc. (London, Ont., Canada). 1,2-Bis-(1-pyrenedecanoyl)-sn-glycero-3-phosphatidylcholine ((P10)2 PC) was obtained from Molecular Probes, Inc. (Eugene, Oreg.).
HEPES buffer (SHE) contained 150 mM NaCl, 20 mM HEPES (N-[2-hydroxyethyl]piperazine-N'-[2-ethanesulfonic acid]) and 1 mM EDTA (ethylenediamine tetraacetic acid) at pH 8.0.
1 mM (P10)2 PC in chloroform was prepared by adding 1 mL chloroform to a vial containing 1 mg of (P10)2 PC, as shipped by Molecular Probes. The actual concentration was determined spectrophotometrically by diluting 10 μL of the chloroform solution in 2 mL of ethanol. The absorbance spectrum of the ethanol solution was measured between 380 nm to 280 nm (Beckman DU-64). […]

[2] = test system: plasma lipids; assay: Plasma lipids in cholesterol-fed rats after oral PLA2 inhibitor; assay type: in vivo; conditions: 100 mg/kg oral gavage, about 8 hours after start of feeding
Procedure: Ultimately, agents that inhibit the absorption of dietary cholesterol should suppress postprandial increases in plasma cholesterol. This was tested with several. PLA2 inhibitors in cholesterol-fed rats. The general protocol consisted of preparing a carboxymethyl cellulose/Tween 20 dispersion of the compound of interest and administering it at a dose of 100 mg/kg by oral gavage to rats previously trained to meal-feed. Immediately following administration of the inhibitor, the rats were fed a lipid-rich meal of chow supplemented with cholesterol, peanut oil, and cholic acid.

[3] = test system: PLA2; conditions: methyl-phosphatidic acid substrate; Jain et al. 1992; read-out: IC50 in "scooting-mode" assay; cited from earlier work
[4] = test system: intestinal lipid absorption; assay: Lymph-fistula rats, diester and diether PC analogs; assay type: in vivo, rat
Source text: The intestinal lipid absorption pathway was isolated in the rat by inserting an infusion cannula in the proximal duodenum and implanting a second cannula in the mesenteric lymph vessel to intercept the lipoprotein output from the intestine. This lymph-fistula rat model was used to investigate the effect of pancreatic PLA2 inhibition, in situ, on intestinal absorption of infused lipid emulsions. In a typical experiment, cannulae were implanted the day before the experimental infusion. Following surgery, the animals were infused (2.5 mL/hr) with isotonic saline containing dextrose to flush the GI tract and obtain basal levels of lymphatic lipid output. On the day of the experiment, infusion of the dextrose recovery solution was continued for 1 hour to collect a basal lymph fraction. At the start of the next hour, the intake of the duodenal infusion cannula was switched to a lipid emulsion of isotonic saline containing safflower oil (59 mM), cholesterol (5.2 mM), PC (3.3 mM) and taurocholic acid (1.9 mM). One hour lymph fractions were collected until the end of the experiment. The lipid content (mass) of lymph fractions was determined by HPLC with a mass-sensitive, evaporative light-scattering detector.
PC analogs in which the normal acyl chains are replaced by alkyl carbon chains linked to the glycerol backbone by ether bonds have physical-chemical properties similar to conventional diester PC molecules but are not hydrolyzable by PLA2. To determine the significance of micellar PC hydrolysis in intestinal lipid absorption, a comparison was made of the mesenteric lymph lipid output from rats infused with lipid microemulsions prepared with 1,2-dipalmitoyl PC (DPPC(ester)) or 1,2-dipalmityl PC (DPPC(ether)) as the PC constituent. […] The total lymphatic CE output over the 12-hour period of DPPC(ether) infusion was only 47% of total CE output obtained with the DPPC(ester) emulsion.

[5] = test system: Caco-2 cells; assay: Caco-2 lipid absorption versus micellar phospholipid composition; assay type: cell-based, human
Procedure: Caco-2 cells were used as a tissue culture model of the human intestinal epithelium to compare the effects of phosphatidylcholine and lysophosphatidylcholine on lipid absorption and the subsequent re-esterification and secretion of micelle-derived lipids.
Caco-2 cell monolayers, grown on micropore membranes separating apical and basolateral culture solutions, were incubated with taurocholate, mixed-lipid micelles composed of 5 mM taurocholic acid, 300 μM monooleoylglycerol, 500 μM [^3 H]oleic acid, 100 μM [^14 C]cholesterol, and 200 μM phospholipid consisting of various proportions of 1-palmitoyl-2-oleoyl phosphatidylcholine and 1-palmitoyl lysophosphatidylcholine. The micelles were added to the apical side of the cell monolayers. Phospholipid-free micelles were also tested for comparison. At the end of 6 hours of incubation, the radiolabeled lipid content of the cells and in the basolateral media were determined. Phospholipid content strongly influenced the absorption and metabolism of cholesterol (FIGS. 1, 2) but had only minimal effects on fatty acid uptake and metabolism (FIG. 3). Caco-2 monolayers incubated with micelles containing only phosphatidylcholine as the phospholipid absorbed 65% less [^14 C]cholesterol than cell monolayers incubated with phospholipid-free micelles.

[6] = test system: Caco-2 cells; assay: Caco-2 phospholipase A2-dependent cholesterol absorption, time course; assay type: cell-based, human
[7] = test system: cholesterol absorption; conditions: Rampone and Long 1977; cited from earlier work
[8] = test system: serum cholesterol; conditions: neomycin 1.5-2 g/day; β-sitosterol 3-50 g/day; cited from earlier work
[9] = porcine pancreatic PLA2, in vitro, read-out: In Vitro IC50 (porc. panc. PLA2)

Compound | IC50 [1, 9] [µM] | % Change in plasma lipids vs. Control: HDL Chol. [2] [%] | % Change in plasma lipids vs. Control: Total Chol. [2] [%] | % Change in plasma lipids vs. Control: non-HDL Chol. [2] [%] | % Change in plasma lipids vs. Control: TG [2] [%] | further results
1-[4,4-bis(4-fluorophenyl)butyl]-3-(3-methoxyphenyl)-3-methyl-pyrrolidine [Compound C] | 5.7 | 38 | -30 | -49 | – | –
CCCCCCC(c1ccc(O)c(C)c1)c1ccc(O)c(C)c1 [Compound A, 4,4'-heptylidenebis-2-methyl-phenol] | 2.2 | 1 | -24 | -32 | -11 | –
CCCCCCCC/C=C\CCCCCCCC(N)=O [Compound E, (Z)-9-octadecen-amide, reference compound] | 2.4 | 2 | -42 | -56 | -35 | IC50 ([1]; FIG. 12, (P10)2 PC substrate, read-out: IC50 in the fluorescence assay): 3 µM; IC50 [3]: 0.1 µM
Cc1ccc(Nc2cccc(Cl)c2)c(/C=C/C(=O)O)c1 [Compound F, 2-(M-chloroanilino)-5-methyl-trans-cinnamic acid] | 8.6 | 2 | -15 | -20 | -5 | –
Cc1ccc(Nc2ccccc2F)c(/C=C/C(=O)O)c1 [Compound G, 2-(O-fluoroanilino)-5-methyl-trans-cinnamic acid] | 4.6 | 15 | -12 | -21 | -24 | –
CCCCCCCCCCCCCCCCOCC(COP(=O)([O-])OCC[N+](C)(C)C)OCCCCCCCCCCCCCCCC (stereo not drawn) [DPPC(ether), 1,2-dipalmityl PC] | – | – | – | – | – | total lymphatic CE output relative to DPPC(ester) ([4]; 12-hour infusion): 47%; time until lymphatic cholesteryl ester output rose above basal ([4]; after initiation of lipid emulsion infusion): 8 h; onset of rise in lymphatic TG and PC output ([4]; following initiation of lipid infusion): not delayed; total lymphatic PC output relative to DPPC(ester) ([4]; infusion of lipid emulsion): 75%; total lymphatic TG output relative to DPPC(ester) ([4]; infusion of lipid emulsion): 71%
CCCCCCCCCCCCCCCC(=O)OCC(O)COP(=O)([O-])OCC[N+](C)(C)C (stereo not drawn) [lysophosphatidylcholine, 1-palmitoyl lysophosphatidylcholine] | – | – | – | – | – | reversal of PC effect on cholesterol absorption ([5]; 6 hours, lysophosphatidylcholine substituted for phosphatidylcholine): reversed this effect, but only when the mole fraction of micellar lysophosphatidylcholine was greater than 50%; [3H]oleate-labeled PC synthesis relative to phospholipid-free micelles [6]: slight decrease; inhibition of cholesterol absorption by intestinal segments [7]: no inhibition
CCCCCCCCCCCCCCCCOCC(COP(=O)([O-])OCC[N+](C)(C)C)OCCCCCCCCCCCCCCCC (stereo not drawn) [nonhydrolyzable phospatidylcholine] | – | – | – | – | – | absorption of lipids into cells (figure legend) ([4]; FIG. 9, nonhydrolyzable phosphatidylcholine): prevents absorption of lipids into cells
CCCCCCCC/C=C\CCCCCCCC(=O)OC(COC(=O)CCCCCCCCCCCCCCC)COP(=O)([O-])OCC[N+](C)(C)C (stereo not drawn) [phosphatidylcholine, 1-palmitoyl-2-oleoyl phosphatidylcholine] | – | – | – | – | – | esterification of micellar [14C]cholesterol ([5]; FIG. 1C, micelles with 50% or more of choline lipid as PC): reduced to an even greater extent; inhibition at 200 µM ([5]; Homo sapiens, Caco-2, 6 h, read-out: [14C]cholesterol absorbed, reduction vs. phospholipid-free micelles): 65%; ACAT activity in cells ([5]; PC-containing micelles): diminished
Neomycin | – | – | – | – | – | reductions in serum cholesterol levels [8]: up to 25%
